Key:
Type in all cases: cell-based
[1] = tested on: primary human total T-cells; assay: T-cell activation assessed by cytokine secretion (GM-CSF, IFNγ, TNFα)
Source text: (§1) Peripheral blood mononuclear cells (PBMC) were obtained either: 1) by using Ficoll-Paque™ (GE Healthcare) for separation of peripheral blood hematopoietic cells from buffy coats of healthy human donors; or 2) directly from FeukoPak donations. Total human primary T-cells were isolated from the PMBCs utilizing negative selection with commercial kits following the manufacturer's protocol (Miltenyi Catalog #130-096-535 (i.e., cocktail of antibodies against surface markers CD14, CD15, CD16, CD19, CD34, CD36, CD56, CD123 and CD235a are incubated with the PBMCs before passing the samples by magnetic beads for removal of cells expressing those surface markers) or StemCells Catalog #17951) to yield >95% CD3+ cells as assessed by flow cytometry. For measurement of cell proliferation, cells were labeled with Cell Trace Violet (Invitrogen) following manufacturer's protocol prior to activation by stimulation with anti-CD3 antibody alone or in combination with anti-CD28 antibody. The Cbl-b inhibitor was added to 1×10^5 cells per well at multiple concentrations (e.g., 10 μM, 1.11 μM, or 0.123 μM) with a final DMSO concentration of <0.1%. The plate was incubated for one hour at 37° C. in 5% CO2. Following incubation with the Cbl-b inhibitor, primary human total T-cells were stimulated with either plate bound anti-CD3 antibody (OKT3) alone or plate bound anti-CD3 antibody (OKT3) with soluble anti-CD28 antibody (28.2) (Life Technologies). To prepare plates with plate bound anti-CD3 antibody (OKT3), 96-well round bottom tissue culture plates were coated with 100 μl of anti-CD3 antibody (OKT3) at 10 μg/mL for 4 hours at 37° C. 5% CO2 in phosphate buffered saline (PBS). The plates were washed with PBS prior to adding the cells with or without soluble anti-CD28 antibody (28.2) to each well at a final concentration of 5 μg/mL. Cells were stimulated for 48 hours prior to harvesting the cell free supernatant and staining the cell population for surface marker assessment by flow cytometry. Supernatants were analyzed for cytokine secretion (e.g., GM-CSF, IFNγ and TNFα) by ELISA (R&D Systems, Peprotech or Life Technologies) or Luminex multiplex kits (Procarta Life Technologies) following manufacturer's protocol. Cells were stained with anti-CD69 (BD Biosciences) to assess levels of surface markers of activation. Proliferation was measured by flow cytometry and data was analyzed with FlowJo v7.6.5 or v10. Readouts were reported as fold change over baseline. In some embodiments, baseline was the measurement obtained from total human T-cells stimulated with anti-CD3 antibody alone, wherein the cells were not incubated with a Cbl-b inhibitor. In some embodiments, baseline was the measurement obtained from total human T-cells stimulated with anti-CD3 antibody and anti-CD28 antibody, where the cells were not incubated with a Cbl-b inhibitor.
(§2) Cbl-b inhibitors were tested to determine their ability to induce or enhance secretion of cytokines from T-cells (e.g., GM-CSF, IFNγ and TNFα) and/or surface expression of cell surface markers on T-cells (e.g., CD69) that is indicative of T-cell activation. Cbl-b inhibitors were also tested to determine their ability to induce or enhance T-cell proliferation. Cbl-b inhibitors were tested for their effects on T-cell activation in the presence of costimulation and where conditions were suboptimal for priming.
(§3) Readouts for T-cell activation were reported as fold change over baseline. Baseline for this study was the measurement obtained from total human T-cells stimulated with anti-CD3 antibody alone or anti-CD3 antibody in combination with soluble anti-CD28 antibody, where the cells were not incubated with a Cbl-b inhibitor. For T-cells stimulated with anti-CD3/anti-CD28 or with anti-CD3 alone changes greater than 1,2-fold over baseline for % positive CD69 staining and greater than 2-fold over baseline for % total proliferating cells were considered a significant and positive response (Table 4a). […]

[2] = tested on: primary human total T-cells; assay: T-cell activation assessed by CD69 expression
Source text: as §1, §2, §3

[3] = tested on: primary human total T-cells; assay: T-cell activation assessed by cell proliferation (Cell Trace Violet)
Source text: as §1, §2, §3

[4] = CD3/CD28 stimulation, read-out: GM-CSF secretion
[5] = CD3/CD28 stimulation, read-out: IFNγ secretion
[6] = CD3/CD28 stimulation, read-out: TNFα secretion
[7] = CD3 alone stimulation, read-out: GM-CSF secretion
[8] = CD3 alone stimulation, read-out: IFNγ secretion
[9] = CD3 alone stimulation, read-out: TNFα secretion
[10] = CD3/CD28 stimulation, CD4 T-cells, read-out: % CD69+ (CD4)
[11] = CD3/CD28 stimulation, CD8 T-cells, read-out: % CD69+ (CD8)
[12] = CD3 alone stimulation, CD4 T-cells, read-out: % CD69+ (CD4)
[13] = CD3 alone stimulation, CD8 T-cells, read-out: % CD69+ (CD8)
[14] = CD3/CD28 stimulation, CD4 T-cells, read-out: % CP (cell proliferation) (CD4)
[15] = CD3/CD28 stimulation, CD8 T-cells, read-out: % CP (cell proliferation) (CD8)
[16] = CD3 alone stimulation, CD8 T-cells, read-out: % CP (cell proliferation) (CD8)

Row | SMILES | fold induction at 1.11 µM [1, 4] | fold induction at 1.11 µM [1, 5] | fold induction at 1.11 µM [1, 6] | fold induction at 10 µM [1, 4] | fold induction at 10 µM [1, 5] | fold induction at 10 µM [1, 6] | fold induction at 1.11 µM [1, 7] | fold induction at 1.11 µM [1, 8] | fold induction at 1.11 µM [1, 9] | fold induction at 10 µM [1, 7] | fold induction at 10 µM [1, 8] | fold induction at 10 µM [1, 9] | fold induction at 1.11 µM [2, 10] | fold induction at 10 µM [2, 10] | fold induction at 1.11 µM [2, 11] | fold induction at 10 µM [2, 11] | fold induction at 1.11 µM [2, 12] | fold induction at 10 µM [2, 12] | fold induction at 1.11 µM [2, 13] | fold induction at 10 µM [2, 13] | other results
1 | C[C@H](Cc1nncn1C)c1cccc(NC(=O)c2cccc(C(F)(F)F)n2)c1 [Compound 183a, (R)-N-(3-(1-(4-methyl-4H-1,2,4-triazol-3-yl)propan-2-yl)phenyl)-6-(trifluoromethyl)picolinamide] | 2.01 to 4 | 2.01 to 3 | 2.01 to 4 | > 4 | > 4 | 2.01 to 4 | 1.51 to 2 | 2.01 to 3 | ≤ 1.5 | 2.01 to 4 | > 4 | 1.51 to 2 | 1.2 to 1.4 | 1.4 to 1.6 | 1.2 to 1.4 | 1.2 to 1.4 | 1.4 to 1.6 | > 1.6 | 1.2 to 1.4 | 1.4 to 1.6 | fold induction at 1.11 µM [3, 14]: 3.01 to 4; fold induction at 10 µM [3, 14]: > 4; fold induction at 1.11 µM [3, 15]: 2.01 to 3; fold induction at 10 µM [3, 15]: > 4; fold induction at 1.11 µM [3, 16]: 3.01 to 4; fold induction at 10 µM [3, 16]: > 4
2 | Cc1cc(C(=O)Nc2cccc([C@H](C)Cc3nncn3C)c2)nc(C2CC2)n1 [Compound 195, (R)-2-cyclopropyl-6-methyl-N-(3-(1-(4-methyl-4H-1,2,4-triazol-3-yl)propan-2-yl)phenyl)pyrimidine-4-carboxamide] | > 4 | 2.01 to 3 | 2.01 to 4 | > 4 | > 4 | > 4 | 2.01 to 4 | 2.01 to 3 | 1.51 to 2 | 2.01 to 4 | > 4 | 1.51 to 2 | ≤ 1.2 | > 1.6 | ≤ 1.2 | 1.2 to 1.4 | ≤ 1.2 | > 1.6 | ≤ 1.2 | 1.4 to 1.6 | fold induction at 1.11 µM [3, 14]: < 2; fold induction at 10 µM [3, 14]: > 4; fold induction at 1.11 µM [3, 15]: < 2; fold induction at 10 µM [3, 15]: > 4; fold induction at 1.11 µM [3, 16]: < 2; fold induction at 10 µM [3, 16]: > 4
3 | C[C@H](Cc1nncn1C)c1cccc(N2Cc3c(cccc3C(F)(F)F)C2=O)c1 [Compound 255a, (R)-2-(3-(1-(4-methyl-4H-1,2,4-triazol-3-yl)propan-2-yl)phenyl)-4-(trifluoromethyl)isoindolin-1-one] | ≤ 1.5 | 3.01 to 4 | ≤ 1.5 | 1.51 to 2 | > 4 | 1.51 to 2 | ≤ 1.5 | < 2 | ≤ 1.5 | ≤ 1.5 | < 2 | ≤ 1.5 | ≤ 1.2 | 1.2 to 1.4 | ≤ 1.2 | 1.2 to 1.4 | ≤ 1.2 | ≤ 1.2 | ≤ 1.2 | ≤ 1.2 | fold induction at 1.11 µM [3, 14]: < 2; fold induction at 10 µM [3, 14]: 3.01 to 4; fold induction at 1.11 µM [3, 15]: < 2; fold induction at 10 µM [3, 15]: 2.01 to 3; fold induction at 1.11 µM [3, 16]: < 2; fold induction at 10 µM [3, 16]: < 2
4 | C[C@H](Cc1nncn1C)c1cccc(NC(=O)c2n[nH]c3c2CCC3)c1 [Compound 313, (R)-N-(3-(1-(4-Methyl-4H-1,2,4-triazol-3-yl)propan-2-yl)phenyl)-1,4,5,6-tetrahydrocyclopenta[c]pyrazole-3-carboxamide] | ≤ 1.5 | < 2 | ≤ 1.5 | 2.01 to 4 | 2.01 to 3 | 2.01 to 4 | ≤ 1.5 | 2.01 to 3 | ≤ 1.5 | 1.51 to 2 | < 2 | ≤ 1.5 | 1.4 to 1.6 | 1.2 to 1.4 | 1.2 to 1.4 | 1.2 to 1.4 | > 1.6 | 1.2 to 1.4 | 1.4 to 1.6 | ≤ 1.2 | fold induction at 1.11 µM [3, 14]: > 4; fold induction at 10 µM [3, 14]: > 4; fold induction at 1.11 µM [3, 15]: 3.01 to 4; fold induction at 10 µM [3, 15]: 2.01 to 3; fold induction at 1.11 µM [3, 16]: > 4; fold induction at 10 µM [3, 16]: 2.01 to 3
5 | Cc1cc(C(=O)Nc2cccc([C@@H](C)Cc3nncn3C)c2)nc(C2CC2)n1 [Compound 325, (S)-2-Cyclopropyl-6-methyl-N-(3-(1-(4-methyl-4H-1,2,4-triazol-3-yl)propan-2-yl)phenyl)pyrimidine-4-carboxamide] | 1.51 to 2 | 3.01 to 4 | ≤ 1.5 | 2.01 to 4 | > 4 | 2.01 to 4 | ≤ 1.5 | < 2 | ≤ 1.5 | 1.51 to 2 | < 2 | ≤ 1.5 | 1.4 to 1.6 | 1.4 to 1.6 | 1.2 to 1.4 | 1.2 to 1.4 | 1.4 to 1.6 | > 1.6 | ≤ 1.2 | 1.2 to 1.4 | fold induction at 1.11 µM [3, 14]: > 4; fold induction at 10 µM [3, 14]: > 4; fold induction at 1.11 µM [3, 15]: 2.01 to 3; fold induction at 10 µM [3, 15]: > 4; fold induction at 1.11 µM [3, 16]: 2.01 to 3; fold induction at 10 µM [3, 16]: > 4

Source: US20220324835A1 (Nurix Therapeutics, Inc., priority 2018, published 2022)
